Data as given in PubChem BioAssay AID1918996 (Molecular Pharmacology Branch, DTP, NCI, 2023).

Tested on: 349418-098-R-PDC complex spheroid growth
Test: Anticancer human tumor 349418-098-R-PDC patient-derived lung adenocarcinoma cell line growth inhibition [AhR]
Details: for IC50: curve of first compound; for viability, T/C: stronger effect = lower value
Outline: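 Agents were dosed in half-log steps down from roughly clinical Cmax, or from 10 microM where Cmax was unknown, alone and with AhR antagonists. Read-out: percent test/control growth of tumor spheroids containing HUVEC and MSC stromal cells.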

[1] = second compound 0.1 µM, first compound 0.0316 µM
[2] = second compound 0.1 µM, first compound 0.1 µM
[3] = second compound 0.1 µM, first compound 0.316 µM
[4] = second compound 0.1 µM, first compound 1 µM
[5] = second compound 0.1 µM, first compound 3.16 µM
[6] = second compound 0.1 µM, first compound 10 µM
[7] = second compound 0.316 µM, first compound 0.0316 µM
[8] = second compound 0.316 µM, first compound 0.1 µM
[9] = second compound 0.316 µM, first compound 0.316 µM
[10] = second compound 0.316 µM, first compound 1 µM
[11] = second compound 0.316 µM, first compound 3.16 µM
[12] = second compound 0.316 µM, first compound 10 µM
[13] = second compound 1 µM, first compound 0.0316 µM
[14] = second compound 1 µM, first compound 0.1 µM
[15] = second compound 1 µM, first compound 0.316 µM
[16] = second compound 1 µM, first compound 1 µM
[17] = second compound 1 µM, first compound 3.16 µM
[18] = second compound 1 µM, first compound 10 µM
[19] = second compound 3.16 µM, first compound 0.0316 µM
[20] = second compound 3.16 µM, first compound 0.1 µM
[21] = second compound 3.16 µM, first compound 0.316 µM
[22] = second compound 3.16 µM, first compound 1 µM
[23] = second compound 3.16 µM, first compound 3.16 µM
[24] = second compound 3.16 µM, first compound 10 µM
[25] = second compound 10 µM, first compound 0.0316 µM
[26] = second compound 10 µM, first compound 0.1 µM
[27] = second compound 10 µM, first compound 0.316 µM
[28] = second compound 10 µM, first compound 1 µM
[29] = second compound 10 µM, first compound 3.16 µM
[30] = second compound 10 µM, first compound 10 µM
[31] = second compound 0.1 µM, first compound 0.00316 µM
[32] = second compound 0.1 µM, first compound 0.01 µM
[33] = second compound 0.316 µM, first compound 0.00316 µM
[34] = second compound 0.316 µM, first compound 0.01 µM
[35] = second compound 1 µM, first compound 0.00316 µM
[36] = second compound 1 µM, first compound 0.01 µM
[37] = second compound 3.16 µM, first compound 0.00316 µM
[38] = second compound 3.16 µM, first compound 0.01 µM
[39] = second compound 10 µM, first compound 0.00316 µM
[40] = second compound 10 µM, first compound 0.01 µM
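Note: spheroids exposed to agents for seven days before luminescence viability read.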
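Throughout, for viability, T/C: spheroids also contain HUVEC endothelial cells and human MSC stroma.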

Structure (SMILES) | IC50 (second compound 0.1 µM) | IC50 (second compound 0.316 µM) | IC50 (second compound 1 µM) | IC50 (second compound 3.16 µM) | IC50 (second compound 10 µM) | viability, T/C [1] | viability, T/C [2] | viability, T/C [3] | viability, T/C [4] | viability, T/C [7] | viability, T/C [8] | viability, T/C [9] | viability, T/C [10] | viability, T/C [13] | viability, T/C [14] | viability, T/C [15] | viability, T/C [19] | viability, T/C [20] | viability, T/C [25] | viability, T/C [26] | other results
CC(C)c1c(-c2ccccc2)nc2c(C#N)c[nH]n2c1=O + CC(CO)NC(=O)c1cc(-c2ccc(Cl)cc2)nn(-c2cnn(C)c2)c1=O | > 10000 nM | > 10000 nM | > 10000 nM | > 10000 nM | 170 nM | 91.8% | 66.8% | 98.2% | 68.5% | 66.9% | 93.3% | 67.7% | 78.7% | 91.3% | 70.7% | 88.3% | 70.3% | 86.2% | 54.3% | 55.3% | viability, T/C [5]: 77%; viability, T/C [6]: 78%; viability, T/C [11]: 85.7%; viability, T/C [12]: 60.8%; viability, T/C [16]: 67.1%; viability, T/C [17]: 58.2%; viability, T/C [18]: 70.3%; viability, T/C [21]: 71.8%; viability, T/C [22]: 77.2%; viability, T/C [23]: 56.4%; viability, T/C [24]: 60.4%; viability, T/C [27]: 46.5%; viability, T/C [28]: 45%; viability, T/C [29]: 43.6%; viability, T/C [30]: 45.5%
COc1ccc([C@@H](O)c2cc(-c3ncnc4cc(N5CCOCC5)ccc34)c(F)cc2Cl)nn1 + CC(CO)NC(=O)c1cc(-c2ccc(Cl)cc2)nn(-c2cnn(C)c2)c1=O | 2060 nM | 1260 nM | 848 nM | 1070 nM | 375 nM | 81.3% | 89.9% | 62.5% | 75.7% | 89.3% | 89.7% | 87% | 55.5% | 96.9% | 119% | 97.1% | 66.2% | 85.8% | 53.6% | 52.6% | viability, T/C [5]: 35.3%; viability, T/C [6]: 13.8%; viability, T/C [11]: 25.4%; viability, T/C [12]: 15.4%; viability, T/C [16]: 41%; viability, T/C [17]: 41.2%; viability, T/C [18]: 13.2%; viability, T/C [21]: 64.8%; viability, T/C [22]: 50.1%; viability, T/C [23]: 30%; viability, T/C [24]: 13.5%; viability, T/C [27]: 53.3%; viability, T/C [28]: 36.9%; viability, T/C [29]: 17%; viability, T/C [30]: 13.5%
CC[C@@]1(O)C(=O)OCc2c1cc1n(c2=O)Cc2cc3c(CN(C)C)c(O)ccc3nc2-1 + Cc1ccccc1N=Nc1ccc(NC(=O)c2ccnn2C)c(C)c1 | 16.5 nM | 11.3 nM | 13.4 nM | 8.38 nM | 6.22 nM | 29.3% | 13% | – | – | 25.5% | 17% | – | – | 22.5% | 17.2% | – | 19.1% | 15.4% | 22.2% | 17.5% | viability, T/C (second compound 0.1 µM, first compound 0.000316 µM): 116%; viability, T/C (second compound 0.1 µM, first compound 0.001 µM): 101%; viability, T/C [31]: 112%; viability, T/C [32]: 65.9%; viability, T/C (second compound 0.316 µM, first compound 0.000316 µM): 95%; viability, T/C (second compound 0.316 µM, first compound 0.001 µM): 104%; viability, T/C [33]: 98.5%; viability, T/C [34]: 52.8%; viability, T/C (second compound 1 µM, first compound 0.000316 µM): 130%; viability, T/C (second compound 1 µM, first compound 0.001 µM): 76.9%; viability, T/C [35]: 98%; viability, T/C [36]: 57.3%; viability, T/C (second compound 3.16 µM, first compound 0.000316 µM): 64.5%; viability, T/C (second compound 3.16 µM, first compound 0.001 µM): 63.3%; viability, T/C [37]: 79.1%; viability, T/C [38]: 46.5%; viability, T/C (second compound 10 µM, first compound 0.000316 µM): 66.8%; viability, T/C (second compound 10 µM, first compound 0.001 µM): 65.1%; viability, T/C [39]: 68.7%; viability, T/C [40]: 38.2%
COc1cc(C2c3cc4c(cc3C(OC3OC5COC(C)OC5C(O)C3O)C3COC(=O)C23)OCO4)cc(OC)c1O (stereo not given) + Cc1ccccc1N=Nc1ccc(NC(=O)c2ccnn2C)c(C)c1 | 298 nM | 243 nM | 219 nM | 149 nM | < 31.6 nM | 89.6% | 98.8% | 47.5% | 20.2% | 103% | 71.3% | 47.2% | 19.9% | 90.4% | 76.6% | 36.5% | 70.1% | 56.9% | 46.4% | 44.6% | viability, T/C [5]: 15.3%; viability, T/C [6]: 13.3%; viability, T/C [11]: 14.6%; viability, T/C [12]: 13.7%; viability, T/C [16]: 23.9%; viability, T/C [17]: 16.6%; viability, T/C [18]: 14.6%; viability, T/C [21]: 36.6%; viability, T/C [22]: 19.1%; viability, T/C [23]: 16.3%; viability, T/C [24]: 16%; viability, T/C [27]: 30.5%; viability, T/C [28]: 22.4%; viability, T/C [29]: 17.5%; viability, T/C [30]: 15.9%
COc1cccc2c1C(=O)c1c(O)c3c(c(O)c1C2=O)CC(O)(C(=O)CO)CC3OC1CC(N)C(O)C(C)O1 (stereo not given) + Cc1ccccc1N=Nc1ccc(NC(=O)c2ccnn2C)c(C)c1 | < 31.6 nM | < 31.6 nM | < 31.6 nM | < 31.6 nM | < 31.6 nM | 25.2% | 19% | 5.76% | 0.44% | 21.5% | 17.8% | 5.6% | 1.97% | 24.3% | 19.2% | 6.34% | 23.6% | 18% | 20.4% | 15.6% | viability, T/C [5]: 4.06%; viability, T/C [6]: 7.47%; viability, T/C [11]: 4.18%; viability, T/C [12]: 7.15%; viability, T/C [16]: 0.81%; viability, T/C [17]: 4.84%; viability, T/C [18]: 6.54%; viability, T/C [21]: 6.45%; viability, T/C [22]: 0.66%; viability, T/C [23]: 4.34%; viability, T/C [24]: 6.09%; viability, T/C [27]: 4.32%; viability, T/C [28]: 1.12%; viability, T/C [29]: 3.09%; viability, T/C [30]: 7.07%
Nc1ncn(C2CC(O)C(CO)O2)c(=O)n1 (stereo not given) + Cc1ccccc1N=Nc1ccc(NC(=O)c2ccnn2C)c(C)c1 | 59 nM | 66.1 nM | 107 nM | 68 nM | 50.5 nM | 66.1% | 39.9% | 39.1% | 30% | 73.1% | 38.8% | 37.7% | 34.5% | 69.9% | 51.8% | 44% | 61% | 42.2% | 53.9% | 42.8% | viability, T/C [31]: 97.8%; viability, T/C [32]: 103%; viability, T/C [33]: 77.8%; viability, T/C [34]: 111%; viability, T/C [35]: 79.6%; viability, T/C [36]: 99.2%; viability, T/C [16]: 34%; viability, T/C [37]: 91.1%; viability, T/C [38]: 74.4%; viability, T/C [21]: 41.3%; viability, T/C [22]: 34%; viability, T/C [39]: 54.7%; viability, T/C [40]: 61.4%; viability, T/C [27]: 37.2%; viability, T/C [28]: 29.5%
